Results published in patent publication US20220054520A1, “OPHTHALMIC COMPOSITION CONTAINING DIQUAFOSOL OR SALT THEREOF, VINYL-BASED POLYMER AND CELLULOSE-BASED POLYMER” (SANTEN PHARMACEUTICAL CO., LTD., priority 2019, published 2022).

System: rat dorsal root ganglion neurons
Assay: Stimulativeness of diquafosol sodium to peripheral nerves, intracellular calcium fluorescence (FLIPR Calcium 6)
Assay type: cell-based
Procedure: The stimulativeness of diquafosol sodium to peripheral nerves in the coexistence of PVP was examined.
Cultured peripheral nerve cells (rat dorsal root ganglion neurons, purchased from Lonza Japan Ltd.) were incubated in a buffer solution (FLIPR Calcium 6 Assay Kit, Molecular Devices, LLC.) including intracellular fluorescent calcium indicator dyes. 40% of the total buffer solution was replaced with each of the aforementioned formulation solutions. The non-stimulation group and the stimulated control group were treated with the buffer solutions instead of the formulation solutions in the same manner. After allowing to stand at room temperature, the fluorescence measurement of the calcium indicator dyes with an elapse of time was started by using a fluorescent plate reader. Diquafosol sodium (final concentration: 0.3%) was added after 60 seconds from the start, and the measurement of fluorescence intensity was continued.
The maximum fluorescence intensity (RFUmax) after addition of diquafosol sodium was calculated relative to the fluorescence intensity (RFU) immediately before the addition as 100%.

With `O=c1ccn([C@@H]2O[C@H](COP(=O)([O-])OP(=O)([O-])OP(=O)([O-])OP(=O)([O-])OC[C@H]3O[C@@H](n4ccc(=O)[nH]c4=O)[C@H](O)[C@@H]3O)[C@@H](O)[C@H]2O)c(=O)[nH]1.[Na+].[Na+].[Na+].[Na+]` [diquafosol sodium, diquafosol tetrasodium salt] the “fluorescence intensity / signal of intracellular calcium ions after addition of diquafosol sodium (in words)” value (peripheral nerve cells exposed to diquafosol sodium 0.3%, with or without formulation solution) was “rapidly increased” and the “maximum fluorescence intensity (RFUmax) after addition of diquafosol sodium” value (stimulated control group: buffer solution instead of formulation solution, diquafosol sodium final concentration 0.3%, RFU before addition as 100%) was at least 103.5%.
